In PMC3914206:

What was measured:
panel of 442 kinases [1] = target: T1, panel of 442 kinases (Homo sapiens, UniProt P27361); assay type: binding; conditions: Compound Concentration 10 µM
T1 construct: purchased KINOMEscan
Text: (§1) We assessed the selectivity of members of this scaffold using the KINOMEscan methodology across a near comprehensive panel of 442 kinases [[18,27]].

panel of 442 kinases [2] = target: T2, panel of 442 kinases (Homo sapiens, UniProt P29323); assay type: binding; conditions: Compound Concentration 10 µM
T2 construct: purchased KINOMEscan
T2 sequence (P29323 19-1055): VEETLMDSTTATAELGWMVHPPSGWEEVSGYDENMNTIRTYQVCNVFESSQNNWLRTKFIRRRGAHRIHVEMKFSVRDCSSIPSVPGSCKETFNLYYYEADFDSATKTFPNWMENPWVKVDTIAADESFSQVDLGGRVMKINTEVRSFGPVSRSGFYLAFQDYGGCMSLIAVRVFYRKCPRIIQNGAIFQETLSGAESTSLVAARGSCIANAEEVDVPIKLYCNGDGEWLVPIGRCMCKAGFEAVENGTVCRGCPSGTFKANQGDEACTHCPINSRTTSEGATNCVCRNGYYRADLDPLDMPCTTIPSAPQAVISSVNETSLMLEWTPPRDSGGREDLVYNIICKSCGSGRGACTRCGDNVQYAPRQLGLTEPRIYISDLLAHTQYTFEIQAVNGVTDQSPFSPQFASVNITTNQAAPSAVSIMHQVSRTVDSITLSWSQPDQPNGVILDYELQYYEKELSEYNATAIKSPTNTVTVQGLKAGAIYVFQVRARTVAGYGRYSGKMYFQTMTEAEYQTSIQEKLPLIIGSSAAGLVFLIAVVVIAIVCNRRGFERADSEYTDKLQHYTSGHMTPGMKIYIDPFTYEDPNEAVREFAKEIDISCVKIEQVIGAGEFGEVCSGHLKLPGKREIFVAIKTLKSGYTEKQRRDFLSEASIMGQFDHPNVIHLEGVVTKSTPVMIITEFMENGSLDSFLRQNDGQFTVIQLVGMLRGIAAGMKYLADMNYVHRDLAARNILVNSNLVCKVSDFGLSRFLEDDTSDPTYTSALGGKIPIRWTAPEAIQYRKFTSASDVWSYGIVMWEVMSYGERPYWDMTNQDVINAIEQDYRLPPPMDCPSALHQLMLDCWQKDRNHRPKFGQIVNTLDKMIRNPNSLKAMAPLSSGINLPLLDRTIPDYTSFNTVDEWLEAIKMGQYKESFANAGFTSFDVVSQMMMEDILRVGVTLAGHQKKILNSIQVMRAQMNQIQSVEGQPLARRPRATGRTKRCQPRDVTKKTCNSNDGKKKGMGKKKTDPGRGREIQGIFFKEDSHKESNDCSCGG
Text: as §1

T1 sequence (P27361 whole entry): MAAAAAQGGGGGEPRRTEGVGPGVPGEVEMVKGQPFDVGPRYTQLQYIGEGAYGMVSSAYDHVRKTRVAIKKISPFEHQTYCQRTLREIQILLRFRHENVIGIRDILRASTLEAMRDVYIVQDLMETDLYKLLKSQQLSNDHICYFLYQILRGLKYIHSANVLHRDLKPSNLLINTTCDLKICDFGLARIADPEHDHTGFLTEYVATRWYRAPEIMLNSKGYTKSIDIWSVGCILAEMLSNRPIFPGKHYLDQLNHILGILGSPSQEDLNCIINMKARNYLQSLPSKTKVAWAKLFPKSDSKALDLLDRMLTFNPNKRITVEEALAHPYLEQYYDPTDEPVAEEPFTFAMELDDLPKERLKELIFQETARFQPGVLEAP

Compound | KINOMEscan: ERK1 (panel of 442 kinases [1]) | KINOMEscan: EPHB2 (panel of 442 kinases [2])
CCOc1cc(C(=O)N2CCC(N3CCN(C)CC3)CC2)ccc1Nc1ncc2c(n1)N(C1CCCC1)c1ccccc1C(=O)N2C [Compound 26] | 100 | 100
COc1cc(C(=O)N2CCC(N3CCN(C)CC3)CC2)ccc1Nc1ncc2c(n1)N(C1CCCC1)c1ccccc1C(=O)N2C [Compound 25, 11-cyclopentyl-2-((2-methoxy-4-(4-(4-methylpiperazin-1-yl)piperidine-1-carbonyl)phenyl)amino)-5-methyl-5H-benzo[e]pyrimido[5,4-b][1,4]diazepin-6(11H)-one] | 96 | 86
COc1cc(C(=O)N2CCC(N3CCN(C)CC3)CC2)ccc1Nc1ncc2c(n1)N(C)c1ccccc1C(=O)N2C [15 (LRRK2-IN-1)] | 100 | 100
